The source of these data is US5874461A, “Use of Nebivolol as an anti-atherogenic” (priority 1995, dated 1999).

One experiment relates to C6 glioma cells. Description: GSH content in C6 glioma cultures after glutamate. Type of experiment: cell-based. As to conditions: for intracellular glutathione levels: 10 mM glutamate, 6 hr or more; for GSH content: glutamate 10 mM, without or with compound 1 μM. From the text:
Competitive inhibition by glutamate of cystine uptake in certain cells leads to glutathione depletion and oxidative stress. This oxidative stress model has been described for glial C6 glioma cells (Kato et al., 1992. A mechanism for glutamate toxicity in the C6 glioma cells involving inhibition of cystine uptake leading to glutathione depletion. Neurosci. 48:903-914) and for the neuronal cell line N18RE105 (Murphy et al., 1989. Glutamate toxicity in a neuronal cell line involves inhibition of cystine transport leading to oxidative stress. Neuron 2:1547-1558).
Cell culture: The C6 glioma cell line (American Type Culture Collection, CCL 107) was cultivated in DMEM supplemented with 2 or 4 mM glutamine, 1 mM pyruvate and 5 or 10% heat-inactivated foetal calf serum. Cultures were maintained at 37° C. in an air/5~10% CO2, water saturated atmosphere.
Glutathione depletion and evaluation of drugs as antioxidants: Experiments were carried out with cultures plated at 30,000~50,000 cells/cm^2 in 24-well culture plates (for toxicity and lipid peroxide measurements) or at 136,000 cells/cm^2 in 96-well culture plates (for GSH determination). After 8-24 hr, the cultures were switched to culture medium in the absence or presence of the cystine uptake inhibitor glutamate at a final concentration of 10 mM. In order to test drugs for inhibition of oxidative stress, the drug was added together with glutamate (final concentration of solvent was 0.01% hydroxypropyl-β-cylodextrin, 0.1% DMSO). Intracellular glutathione levels were measured after 6~8 hr, lipid peroxides were measured after 14~20 hr, and toxicity and protection were analysed after 48 hr using an LDH assay according to the method of Bergmeyer and Bernt (UV-assay with pyruvate and NADH. In: Methods of Enzymatic Analysis. 1974. H. U. Bergmeyer, ed. Acad. Press, New York, 2nd Ed., pp 574-579).
Determination of GSH content in C6 glioma cultures: GSH levels were analysed by a micromethod, essentially as described by Vandeputte et al. (A microtiterplate assay for total glutathione and glutathione disulfide contents in cultured/isolated cells: performance study of a new miniaturised protocol. 1994. Cell Biol. Toxicol. 10:415-421), with a modification in the washing and homogenisation procedures. Cells (in 96-well plates) were washed with PBS, were homogenised in 50 μl 10 mM HCl containing 1.3% 5-sulfosalicylic acid, and the homogenate was centrifuged at 1200×g for 10 min at 4° C. Forty μl of the supernatant was transferred to a well of a 96-well plate and 200 μl reagent (1 mM 5,5'-dithiobis-(2-nitrobenzoic acid), 0.34 mM NADPH and 6.3 mM EDTA in 143 mM phosphate buffer pH 7.4) was added. After 5 min equilibration to room temperature the reaction was started by adding 40 μl glutathione reductase (8.5 IU/ml 143 mM phosphate buffer, 6.3 mM EDTA pH 7.4). NADPH oxidation was followed at 414 nm for 5 minutes with a Multiskan MCC/340 (Labsystems), and the change in absorbance (DA) per min was calculated. The glutathione content was deduced from a standard curve ranging from 0.2 to 2 nmol commercial GSH per test (DA/min plotted versus concentration).

The test system of the next experiment is human LDL. Description: In vitro oxidation of human LDL (Cu-induced conjugated diene formation at 234 nm). Type of experiment: biochemical. As to conditions: in vitro. On the procedure:
In vitro oxidation of human LDL Human venous blood was collected on EDTA (2.68 mM final concentration). Plasma was isolated by centrifugation. NaBr (37.3 mg/ml) was added and solubulized (final density 1.036 g/ml). Centrifuge tubes were first filled to a level corresponding to 2/3 of their maximal volume, further filled with a NaBr solution of 1.036 g/ml and then centrifuged for 18 hours at 45000 rpm in a 50 Ti rotor (Beckmann). After centrifugation, floating lipoproteins were discarded. The remaining solution was adjusted to a density of 1.055 g/ml. Filling of the centrifuge tubes and centrifugation were repeated as described above. After centrifugation, floating LDL was dialysed against a buffer containing 127 mM NaCl, 8 mM Na2 HPO4.2H2 O, 2.7 mM KCl and 1.47 mM KH2 PO4 at pH 7.4. After dialysis, LDL was filtered though a Millipore filter (0.45 μM) and protein content was determined. A dilution of 25 μg/ml was prepared with a millipored dialysis buffer. Oxidation was determined in a Pharmacia Ultraspec III spectrophotometer. Conjugated diene formation was registered at 234 nm. Two μl of a drug or solvent (DMSO) were added to Eppendorf tubes followed by 1 ml of LDL (25 μg/ml) and these substances were gently mixed and centrifuged for 1 min at 13000 g. The solution was pipetted in a Quartz cuvet that was thermostatised in the spectrophotometer at 37° C. After equilibration, the oxidation reaction was started by the addition of CuSO4 (final concentration 10 μM). Absorbance was measured every 3 minutes during the time course of the experiment. The absorbance at 234 nm was divided into three phases: a lag phase, a propagation phase and a decomposition phase (FIG. 1). The lag phase was defined as the intercept with the baseline of the tangent of the slope of the absorbance curve of the propagation phase. The rate of oxidation was defined as the tangent of the slope. Tmax was defined as the time required to attain the maximum absorbance between the propagation and the decomposition phase. The absorbance at tmax minus the absorbance at to was taken as an indicator of the total amount of dienes formed. To verify the reproducibility of the assay, a reference LDL sample was prepared and kept in darkness under nitrogen at 4° C. This reference sample was included in every oxidation experiment. LDL was isolated from 23 subjects. Plasma cholesterol ranged from 156 to 278 mg/dl (mean 213 mg/dl), triglycerides ranged from 47 to 328 mg/dl (mean 191 mg/dl) and phospholipids ranged from 178 to 327 mg/dl (mean 231 mg/dl).

In a further experiment the test system is anaesthetized dogs. As to conditions: anaesthesized dogs; cited from earlier work.
For experiment [1], the system named is spontaneous hypertensive rats. As to conditions: acute; cited from earlier work.

Structures are written as SMILES.

Take `O[C@H](CNC[C@@H](O)[C@H]1CCc2cc(F)ccc2O1)[C@@H]1CCc2cc(F)ccc2O1` (relative stereo) [nebivolol, (RSSS) and (SRRR) α,α'-iminobis(methylene)bis[6-fluoro-2-chroman-methanol]]: in the experiment on C6 glioma cells, the intracellular glutathione levels result is given as “remained about half the levels seen in healthy control cells” and the GSH content came out at 301 ± 12 pmol/well. In the experiment on human LDL, the “antioxidative effect on human LDL” value was “no antioxidative effect”. In addition, in the experiment with anaesthetized dogs, the stroke volume result is recorded as “augments stroke volume” and the “total peripheral vascular resistance” value is given as “decreases total peripheral vascular resistance”. Besides, the blood pressure entry in experiment [1] is recorded as “acutely lowers blood pressure”.
Regarding `Oc1ccc2c(c1)CCC(C(O)CNCC(O)C1CCc3ccccc3O1)O2` (stereo not drawn) [Compound A, [(RRSR)+(RRRS)+(SSSR) +(SSRS)]-α-[[[2-(chroman-2-yl)-2-hydroxy-ethyl]amino]methyl]-6-hydroxy-2-chromanmethanol ethanedioate (1:1)], in the experiment on C6 glioma cells, the intracellular glutathione levels result is listed as “remained about half the levels seen in healthy control cells” and the GSH content stood at 301 ± 12 pmol/well.
